In patent US4530907A, “Perfusion-cultivation of animal cells and equipment therefor” (priority 1981, dated 1985):

Tested on: neuroblastoma cells
Conditions: not given
Source text: The test system in question is based on cultivation of neuroblastoma cells C1300, 41A3 and the effect on these cells measured as general biological cell changes or biochemical changes, as a function of the content of toxic substances in the substrate. The cell line used is suitable for such measurements since its biology and biochemistry is well documented.
Examples of other parameters which can be used are ATP (adenosine triphosphate) content and LDH (lactate dehydrogenase) activity in the perfusion liquid. These function as indicators of membrane leakage and their concentration can be expected to increase after exposure. Another way of measuring membrane leakage is to study the outflow of an isotope-marked marker (see Example 5). It is also possible to measure the absorption of trypan blue in dead cells with the help of light absorption (see Example 4 and FIG. 4).
Determining LD50 values by means of cell death, measured as absorption of trypan blue
The accumulation of trypan blue (a stain which is taken up in dead cells) can be calculated with the help of light-absorption measurements.

**Q.** For c1ccccc1 [benzene], which “cell death in neuroblastoma cells, correlation with the LD50 values obtained from animal experiments” value (“cell death in neuroblastoma cells” for short) is on record?
**A.** correlates well

Same assay, conditions: trypan blue absorption by light absorption; statement for all listed substances together

**Q.** How did the “cell death in neuroblastoma cells” value turn out when [CH3][Hg][Cl] [CH3 HgCl] was run?
**A.** correlates well

**Q.** How did the “cell death in neuroblastoma cells” value turn out when [Cl][Cd][Cl] [CdCl2] was run?
**A.** correlates well

**Q.** How did the “cell death in neuroblastoma cells” value turn out when [Cl][Hg][Cl] [HgCl2] was run?
**A.** correlates well

**Q.** With [K+].[K+].[O]=[Cr](=[O])([O-])[O][Cr](=[O])(=[O])[O-] [K2 Cr2 O7] as the compound, how does the “cell death in neuroblastoma cells” value read?
**A.** correlates well

**Q.** With CC(C)=O [acetone] as the compound, how does the “cell death in neuroblastoma cells” value read?
**A.** correlates well

**Q.** With C1COCCO1 [dioxane] as the compound, how does the “cell death in neuroblastoma cells” value read?
**A.** correlates well

**Q.** Which “cell death in neuroblastoma cells” value does the source give for CCCCO [n-butanol] here?
**A.** correlates well

**Q.** How did the “cell death in neuroblastoma cells” value turn out when CCCO [n-propanol] was run?
**A.** correlates well

**Q.** For Clc1ccc(C(c2ccc(Cl)cc2)C(Cl)(Cl)Cl)cc1 [pp-DDT], which “cell death in neuroblastoma cells” value is on record?
**A.** correlates well
